Assay results from ChEMBL document CHEMBL1201862, “PubChem BioAssay data set” (2004).
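Each compound was tested at five concentrations against cells in 96-well plates for 48 hours. GI50 marks 50% less growth.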 The source made the active and inactive calls. Rule as the data show it: active = GI50 up to about 1.1 µM and inactive = higher.

Legend:
Test in all cases: growth of human tumour cells (NCI), 48 h
UACC-62 = test system: UACC-62
SW-620 = test system: SW-620
NCI-H522 = test system: NCI-H522
SF-295 = test system: SF-295
SNB-19 = test system: SNB-19
NCI-H460 = test system: NCI-H460
A549 = test system: A549
OVCAR-3 = test system: OVCAR-3
UACC-257 = test system: UACC-257
OVCAR-5 = test system: OVCAR-5
M14 = test system: M14
IGROV-1 = test system: IGROV-1
NCI-H23 = test system: NCI-H23
SNB-75 = test system: SNB-75
SN12C = test system: SN12C
HCT-15 = test system: HCT-15
SR = test system: SR

Compound	GI50 (UACC-62)	GI50 (SW-620)	GI50 (NCI-H522)	GI50 (SF-295)	GI50 (SNB-19)	GI50 (NCI-H460)	GI50 (A549)	GI50 (OVCAR-3)	GI50 (UACC-257)	GI50 (OVCAR-5)	GI50 (M14)	GI50 (IGROV-1)	GI50 (NCI-H23)	GI50 (SNB-75)	GI50 (SN12C)	GI50 (HCT-15) [µM]	GI50 (SR)
CN(C)c1ccc(/C=C(\NC(=O)c2ccccc2)c2nc3ccc4c(c3[nH]2)C(=O)c2ccccc2C4=O)cc1	35.8 µM (inactive)	33.2 µM (inactive)	8.79 µM (inactive)	46.6 µM (inactive)	> 100 µM (inactive)	29.1 µM (inactive)	20 µM (inactive)	32.2 µM (inactive)	> 100 µM (inactive)	> 100 µM (inactive)	53.8 µM (inactive)	11.4 µM (inactive)	18.1 µM (inactive)	11 µM (inactive)	34 µM (inactive)	34.1	–
COc1ccc(NC(=O)C(C)Oc2ccc(OCC3CCCCC3)cc2)cc1 (stereo unspecified)	> 100 µM (inactive)	–	25.6 µM (inactive)	–	> 100 µM (inactive)	45.8 µM (inactive)	54.1 µM (inactive)	62.5 µM (inactive)	36.6 µM (inactive)	–	70.3 µM (inactive)	> 100 µM (inactive)	34.5 µM (inactive)	54 µM (inactive)	> 100 µM (inactive)	63	–
COc1ccc(OC)c2[nH]c(Sc3c([N+](=O)[O-])ncn3C)nc12	18.5 µM (inactive)	24.5 µM (inactive)	–	41.8 µM (inactive)	> 10 µM (inactive)	38.1 µM (inactive)	33.7 µM (inactive)	16.8 µM (inactive)	15.3 µM (inactive)	94.6 µM (inactive)	20.3 µM (inactive)	24.2 µM (inactive)	17.5 µM (inactive)	30.8 µM (inactive)	19.9 µM (inactive)	16	–
O=C(CO)CC(=O)C(=O)Nc1nc([N+](=O)[O-])cs1	> 100 µM (inactive)	> 100 µM (inactive)	> 100 µM (inactive)	> 100 µM (inactive)	> 100 µM (inactive)	> 100 µM (inactive)	> 100 µM (inactive)	> 100 µM (inactive)	> 100 µM (inactive)	> 100 µM (inactive)	> 100 µM (inactive)	> 100 µM (inactive)	> 100 µM (inactive)	55.1 µM (inactive)	> 100 µM (inactive)	> 100	> 100 µM (inactive)
COC(=O)C(Cc1nc2ccccc2nc1O)C(=O)C(=O)Nc1ccc([N+](=O)[O-])cc1[N+](=O)[O-] (stereo unspecified)	18.7 µM (inactive)	18.7 µM (inactive)	6.22 µM (inactive)	24.9 µM (inactive)	29.7 µM (inactive)	22.1 µM (inactive)	34.1 µM (inactive)	15.5 µM (inactive)	19.7 µM (inactive)	27.2 µM (inactive)	17.8 µM (inactive)	25.6 µM (inactive)	18.7 µM (inactive)	16.3 µM (inactive)	19.8 µM (inactive)	17.3	12 µM (inactive)
CCC1(O)C(=O)OCc2c1cc1n(c2=O)Cc2cc3cc(OC)c(OC)cc3nc2-1 (stereo unspecified)	> 10 µM (inactive)	–	8.61 µM (inactive)	10.9 µM (inactive)	16 µM (inactive)	3.49 µM (inactive)	33.1 µM (inactive)	83.4 µM (inactive)	> 100 µM (inactive)	> 100 µM (inactive)	26.4 µM (inactive)	13.9 µM (inactive)	15 µM (inactive)	15 µM (inactive)	5.5 µM (inactive)	–	2.29 µM (inactive)
CC1(C)CC(C)(C)CC(O)(C2(O)CC(C)(C)CC(C)(C)C2)C1	> 100 µM (inactive)	> 100 µM (inactive)	> 100 µM (inactive)	> 100 µM (inactive)	> 100 µM (inactive)	> 100 µM (inactive)	> 100 µM (inactive)	> 100 µM (inactive)	> 100 µM (inactive)	–	> 100 µM (inactive)	> 100 µM (inactive)	> 100 µM (inactive)	–	> 100 µM (inactive)	> 100	> 100 µM (inactive)
NCC(=O)OCN1C(=O)C2C3C=CC(C2C1=O)C1C2C(=O)N(COC(=O)CN)C(=O)C2C31 (stereo unspecified)	24.2 µM (inactive)	24.4 µM (inactive)	–	53.7 µM (inactive)	48.8 µM (inactive)	17.3 µM (inactive)	25.5 µM (inactive)	35 µM (inactive)	31.8 µM (inactive)	–	18.9 µM (inactive)	40.2 µM (inactive)	29.2 µM (inactive)	32.3 µM (inactive)	23.3 µM (inactive)	16.9	–
COc1ccc(OC(C(=O)O)c2ccccc2)c2c1CCCC2=O (stereo unspecified)	> 100 µM (inactive)	> 100 µM (inactive)	> 100 µM (inactive)	> 100 µM (inactive)	> 100 µM (inactive)	> 100 µM (inactive)	> 100 µM (inactive)	> 100 µM (inactive)	> 100 µM (inactive)	> 100 µM (inactive)	> 100 µM (inactive)	> 100 µM (inactive)	> 100 µM (inactive)	–	> 100 µM (inactive)	> 100	–
CC(=O)N(O)Cc1ccccc1	> 100 µM (inactive)	> 100 µM (inactive)	> 100 µM (inactive)	> 100 µM (inactive)	> 100 µM (inactive)	> 100 µM (inactive)	> 100 µM (inactive)	> 100 µM (inactive)	> 100 µM (inactive)	> 100 µM (inactive)	> 100 µM (inactive)	> 100 µM (inactive)	> 100 µM (inactive)	67.9 µM (inactive)	> 100 µM (inactive)	> 100	> 100 µM (inactive)
NC(=S)N/N=C(/CC(=O)c1ccccc1)C(=O)Nc1ccc(Cl)c(Cl)c1	27.4 µM (inactive)	78.5 µM (inactive)	21.6 µM (inactive)	61.9 µM (inactive)	91.2 µM (inactive)	46.7 µM (inactive)	> 100 µM (inactive)	37.3 µM (inactive)	> 100 µM (inactive)	> 100 µM (inactive)	> 100 µM (inactive)	65.2 µM (inactive)	> 100 µM (inactive)	> 100 µM (inactive)	> 100 µM (inactive)	43.3	–
O=C(O)[C@@H]1CCCC[C@@H]1C(=O)N(C1CCCCC1)C1CCCCC1	> 100 µM (inactive)	> 100 µM (inactive)	> 100 µM (inactive)	> 100 µM (inactive)	–	> 100 µM (inactive)	> 100 µM (inactive)	> 100 µM (inactive)	> 100 µM (inactive)	> 100 µM (inactive)	> 100 µM (inactive)	> 100 µM (inactive)	> 100 µM (inactive)	> 100 µM (inactive)	> 100 µM (inactive)	> 100	> 100 µM (inactive)
Cn1c(-c2ccccc2)c/c(=N\NS(C)(=O)=O)c2cc(S(=O)(=O)O)ccc21	> 100 µM (inactive)	> 100 µM (inactive)	> 100 µM (inactive)	> 100 µM (inactive)	> 100 µM (inactive)	> 100 µM (inactive)	> 100 µM (inactive)	> 100 µM (inactive)	> 100 µM (inactive)	> 100 µM (inactive)	> 100 µM (inactive)	> 100 µM (inactive)	> 100 µM (inactive)	> 100 µM (inactive)	> 100 µM (inactive)	> 100	> 100 µM (inactive)
c1ccc(CN(Cc2ccccn2)Cn2cccn2)nc1	20.3 µM (inactive)	48 µM (inactive)	> 100 µM (inactive)	62.7 µM (inactive)	> 100 µM (inactive)	41.2 µM (inactive)	54.6 µM (inactive)	> 100 µM (inactive)	39 µM (inactive)	–	25.9 µM (inactive)	–	50.5 µM (inactive)	> 100 µM (inactive)	47.9 µM (inactive)	28.7	33.4 µM (inactive)
Cc1nc2c(n1Cc1ccc(F)cc1)C(=O)c1ccccc1C2=O	5.25 µM (inactive)	41.3 µM (inactive)	10.8 µM (inactive)	44.2 µM (inactive)	> 100 µM (inactive)	4.07 µM (inactive)	36.5 µM (inactive)	15.1 µM (inactive)	26.6 µM (inactive)	–	> 100 µM (inactive)	25.8 µM (inactive)	13.2 µM (inactive)	36.6 µM (inactive)	54 µM (inactive)	4.29	4.29 µM (inactive)
CCCN(CCCC(NC(C)=O)C(=O)NCc1ccccc1)C(=O)NC (stereo unspecified)	> 100 µM (inactive)	> 100 µM (inactive)	> 100 µM (inactive)	> 100 µM (inactive)	> 100 µM (inactive)	> 100 µM (inactive)	> 100 µM (inactive)	> 100 µM (inactive)	> 100 µM (inactive)	> 100 µM (inactive)	> 100 µM (inactive)	> 100 µM (inactive)	> 100 µM (inactive)	13.7 µM (inactive)	> 100 µM (inactive)	> 100	–
Cc1ccc(NC(=O)C(=O)C(C(=O)c2ccc3ccccc3c2)C2OC(=O)c3ccccc32)cc1C (stereo unspecified)	12.4 µM (inactive)	14.7 µM (inactive)	3.03 µM (inactive)	–	5.31 µM (inactive)	5.74 µM (inactive)	16.5 µM (inactive)	10.9 µM (inactive)	10 µM (inactive)	23.9 µM (inactive)	15.6 µM (inactive)	18.7 µM (inactive)	4.79 µM (inactive)	2.98 µM (inactive)	18.9 µM (inactive)	5.02	–
O=C(/C=C/c1ccccc1Cl)NC1C=Nc2ccc([N+](=O)[O-])cc2NC1 (stereo unspecified)	> 100 µM (inactive)	4.25 µM (inactive)	22.6 µM (inactive)	> 100 µM (inactive)	> 100 µM (inactive)	47 µM (inactive)	> 100 µM (inactive)	42.3 µM (inactive)	89.3 µM (inactive)	> 100 µM (inactive)	> 100 µM (inactive)	88.7 µM (inactive)	–	90.8 µM (inactive)	98.6 µM (inactive)	35.9	14 µM (inactive)
